Data as given in patent publication US8455649B2, “Insecticidal substituted azinyl derivatives” (Dow AgroSciences, LLC, priority 2007, dated 2013).
Like-named read-outs stand apart in the source and are kept apart here.

Columns and labels:
[1] = system: Corn Earworm (Helicoverpa zea); assay: Insecticidal diet-surface test for corn earworm; assay type: in vivo; details: 120 h, read-out: HELIZE AVG % Mortality (50 μg/cm^2)
Protocol: (§1) The compounds identified in Table 1 were tested against beet armyworm and corn earworm as follows:
(§2) Insecticidal Test for Corn Earworm (Helicoverpa zea) and Beet Armyworm (Spodoptera exigua).
(§3) To prepare test solution, the test compound was formulated at 2000 ppm solution as 4 mg/2 mL of 9 acetone:1 tap water. 50 μL of the 2000 ppm (equivalent to 50 μg/cm^2 dose on diet surface area) test solution was pipetted upon the surface of 1 mL of lepidopteran diet (Southland Multi-Species Lepidopteran Diet) contained in each of eight wells per insect species (one well=1 replication). A second-instar corn earworm and beet armyworm was placed upon the treated diet in each well once the solvent had air-dried. Trays containing the treated diet and larvae were covered and then held in a growth chamber at 25° C., 50-55% RH, and 16 hr light:8 hr dark for 5 days. Observation were conducted 5 days after treatment and infestation. The number of dead insects of 8 per species per treatment was then determined and the results are given in Table 2 as a percent control at a dose of […].

[2] = system: Beet Armyworm (Spodoptera exigua); assay: Insecticidal diet-surface test for beet armyworm; assay type: in vivo; details: 120 h, read-out: LAPHEG AVG % Mortality (50 μg/cm^2)
Protocol: as §1, §2, §3

[3] = second-instar larvae on treated diet, 50 μg/cm^2 on diet surface, 5 days after treatment, 8 insects per treatment

Row | Compound | mortality at 50 µg/cm2 [1, 3] [%] | mortality at 50 µg/cm2 [2, 3] [%] | mortality at 50 µg/cm2 [1] [%] | mortality at 50 µg/cm2 [2] [%]
1 | CN(C(=O)Nc1cc(OCC(F)(F)F)nc(OCC(F)(F)F)n1)c1ccc(Br)cc1 [Compound 108] | 100 | 100 |  | 
2 | CC(=O)OCN(C(=O)Nc1ccc(C(F)(F)F)cc1)c1nc(OCC(F)(F)F)cc(OCC(F)(F)F)n1 [Compound 13] | 100 | 100 |  | 
3 | O=C(Nc1nc(OCC(F)(F)F)cc(OCC(F)(F)F)n1)Nc1c(Cl)cc(OC(F)(F)F)cc1Cl [Compound 178] | 100 | 100 |  | 
4 | CCCN(C(=O)Nc1nc(OCC(F)(F)F)cc(OCC(F)(F)F)n1)c1ccc(OC(F)(F)F)cc1 [Compound 26] | 100 | 100 |  | 
5 | Cc1c(OCC(F)(F)F)nc(NC(=O)Nc2ccc(Br)cc2)nc1OCC(F)(F)F [Compound 139] | 88 | 88 |  | 
6 | O=C(Nc1ccc(C(F)(F)F)cc1)Nc1nc(OCC(F)(F)F)c(Cl)c(OCC(F)(F)F)n1 [Compound 145] | 0 | 100 |  | 
7 | O=C(Nc1ccc(C(F)(F)C(F)(F)F)cc1)Nc1nc(OCC(F)(F)F)cc(OCC(F)(F)F)n1 [Compound 151] | 100 | 100 |  | 
8 | CN(C(=O)Nc1nc(OCC(F)(F)F)cc(OCC(F)(F)F)n1)c1ccc(C#N)c(Cl)c1 [Compound 92] |  |  | 100 | 100
9 | COCN(C(=O)N(COCc1ccccc1)c1nc(OCC(F)(F)F)cc(OCC(F)(F)F)n1)c1ccc(C(F)(F)F)nc1 [Compound 89] | 100 | 100 |  | 
10 | O=C(Nc1ccc(C(F)(F)F)cc1)Nc1nc(OCC(F)(F)F)cc(C(F)(F)F)n1 [Compound 102, N-(4-trifluoromethylphenyl)-N′-[4-trifluoromethyl-6-(2,2,2-trifluoroethoxy)pyrimidin-2-yl]urea] | 100 | 0 |  | 
11 | O=C(Nc1ccc(C(F)(F)F)cc1)N(COCc1ccccc1)c1nc(OCC(F)(F)F)cc(OCC(F)(F)F)n1 [Compound 19, N-Benzyloxymethyl-N-[4,6-bis-(2,2,2-trifluoroethoxy)pyrimidin-2-yl]-N′-[(4-trifluoromethyl)phenyl]urea] | 100 | 100 |  | 
12 | O=C(Nc1ccc(C(F)(F)F)c(F)c1)Nc1nc(OCC(F)(F)F)cc(OCC(F)(F)F)n1 [Compound 78] | 100 | 100 |  | 
13 | CCOc1cc(OCC(F)(F)F)nc(NC(=O)N(C)c2ccc(Br)cc2)n1 [Compound 103, N-(4-bromophenyl)-N′-[4-ethoxy-6-(2,2,2-trifluoroethoxy)-pyrimidin-2-yl]-N-methylurea] | 100 | 25 |  | 
14 | CC(C)OCN(C(=O)N(COCc1ccccc1)c1nc(OCC(F)(F)F)cc(OCC(F)(F)F)n1)c1ccc(Br)cc1 [Compound 66] | 100 | 100 |  | 
15 | CC(C)N(C(=O)Nc1nc(OCC(F)(F)F)cc(OCC(F)(F)F)n1)c1ccc(OC(F)(F)F)cc1 [Compound 69] | 100 | 100 |  | 
16 | CCOCN(C(=O)Nc1nc(OCC(F)(F)F)cc(OCC(F)(F)F)n1)c1ccc(C(F)(F)F)cc1 [Compound 34, N′-[4,6-Bis(2,2,2-trifluoroethoxy)pyrimidin-2-yl]-N-ethoxymethyl-N-(4-trifluoromethylphenyl)urea] | 100 | 100 |  | 
17 | CN(C(=O)Nc1nc(OCC(F)(F)F)cc(OCC(F)(F)F)c1F)c1ccc(C(F)(F)F)cc1 [Compound 184] | 100 | 100 |  | 
18 | CCN(C(=O)Nc1nc(OCC(F)(F)F)cc(OCC(F)(F)F)n1)c1ccc(OC(F)(F)F)cc1 [Compound 27] | 100 | 100 |  | 
19 | CC(Oc1ccc(NC(=O)Nc2nc(OCC(F)(F)F)cc(OCC(F)(F)F)n2)cc1)C(F)(F)F (stereo not drawn) [Compound 17] | 0 | 100 |  | 
20 | CN(C(=O)Nc1nc(OCC(F)(F)F)cc(OCC(F)(F)F)n1)c1ccc(Br)nc1 [Compound 42] | 100 | 100 |  | 
21 | CN(C(=O)Nc1nc(OCC(F)(F)F)cc(OCC(F)(F)F)n1)c1ccc(C#N)cn1 [Compound 128] | 100 | 88 |  | 
22 | CN(C(=O)Nc1nc(OCC(F)(F)F)cc(OCC(F)(F)F)n1)c1ccc(Cl)c(Cl)c1 [Compound 85] | 100 | 100 |  | 
23 | O=C(Nc1ccc(OC(F)(F)F)cc1)Nc1nc(OCC(F)(F)F)cc(OCC(F)(F)F)n1 [Compound 3, N-(4-trifluoromethoxyphenyl)-N′-[4,6-(2,2,2-trifluoroethoxy)pyrimidin-2-yl]urea] | 100 | 100 |  | 
24 | CCNCCNc1cc(OCC(F)(F)F)nc(NC(=O)Nc2ccc(C(F)(F)F)cc2)n1 [Compound 98] | 100 | 100 |  | 
